Here are results for 17 molecules from PubChem BioAssay AID489023 (Sanford-Burnham Center for Chemical Genomics, 2010).

The source made the active and inactive calls. How the calls were made is not given here.

The test system of the experiment is 697B cells, BCR-induced NF-kB luciferase reporter luminescence. The experiment is described as follows: B-cell receptor NF-kB reporter inhibition – 697B cells, luciferase luminescence, dose response (AID 489023).

For orientation: IC50 means the midpoint of a concentration-inhibition curve. `COc1ccc(C(=O)Nc2nnc(Cc3cccs3)s2)cc1OC`: the IC50 is > 80 µM (inactive).
To `CC(=C/c1ccco1)/C=N/NC(=O)CSc1nnc(SCc2ccc(C)cc2)s1` belongs > 80 µM (inactive).
To `Cn1nc(-c2ccc(Cl)cc2)c2cc(C(=O)N3CCCC3)sc21` belongs > 80 µM (inactive); to `COc1ccccc1/C=C1/SC(=S)N(CCC(=O)Nc2cccnc2)C1=O`, 9.65 µM.
Turning to `Cn1c(=O)cc(Nc2ccccc2)c2c(=O)n(-c3ccccc3)c(=O)n(-c3ccccc3)c21`, the IC50 is 5.6 µM.
To `COc1ccc(/C=C2\SC(=S)N(CCCC(=O)NNC(=O)c3ccccc3O)C2=O)cc1` belongs 0.68 µM; to `Cn1nnnc1Sc1ncnc2scc(Br)c12`, 0.67 µM.
To `NNC(=O)COc1ccc(-c2nccc(-c3ccc(F)cc3)n2)cc1` belongs 4.92 µM; to `N=c1c2c(n(Cc3ccc(Cl)c(Cl)c3)c3c1CCC3)CCCC2`, 31.1 µM (inactive).
As for `Cc1ccc(Sc2cc(NCCCO)c([N+](=O)[O-])c3nonc23)cc1`, the IC50 is > 80 µM (inactive).
Turning to `C(=N\Nc1nc(Nc2ccccc2)nc(N2CCOCC2)n1)/c1c[nH]c2ccccc12`, the concentration for half-maximal inhibition (IC50) is < 0.16 µM.
As for `Cc1c(CCC(=O)NCCCn2ccnc2)c(=O)oc2c(C)c3oc4c(c3cc12)CCCC4`, the IC50 is 30.4 µM (inactive).
To `COc1cc(OC)cc(-c2cc3nc(C)c(CCC(=O)NCc4ccccc4)c(C)n3n2)c1` belongs 4.7 µM; to `COc1ccc(/C=C2/SC(=S)N(CCC(=O)O)C2=O)cc1`, 2.46 µM; to `COc1ccc(-c2ccc(OC)c([C@H]3[C@H]4C=CC[C@@H](C)[C@@H]4C(=O)N3Cc3ccccc3)c2)cc1C`, > 80 µM (inactive).
The same measure for `CCOC(=O)Cc1ccc(NC(=O)c2ccc(C(C)(C)C)cc2)cc1`: < 0.16 µM.
As to `CC(=C\c1ccccc1)/C=C1/SC(=O)N(CCCC(=O)Nc2ccc(C(=O)O)cc2)C1=O`, the half-maximal inhibitory concentration (IC50) was 0.64 µM.
